Results published in patent US20250205164A1, “FPR2 AGONIST CONTAINING OUTER MEMBRANE VESICLES DERIVED FROM LACTIC ACID BACTERIUM” (ASAHI GROUP HOLDINGS, LTD., priority 2022, published 2025).

System: M2 macrophages differentiated from human monocyte-derived cells (THP-1)
Assay: IL-10 inducing ability in M2 macrophages (Human IL-10 ELISA of culture supernatant)
Type: cell-based
Details: Reference Example 1; 500 ng/ml FSL-1, 5000 nM WKYMVm at preparation, final 1/50; 24 hours; n=6
Protocol: The anti-inflammatory cytokine IL-10 inducing ability in M2 macrophages differentiated from human monocyte-derived cells (THP-1, JCRB Cell Bank) was evaluated by the following procedure, which is a modification of the method described in the literature (BMC Cancer 15:577 (2015)). […]
After the culture, the culture supernatant was collected, and the IL-10 concentration in the supernatant was calculated using Human IL-10 DuoSet ELISA (R&D Systems). […]
Student's t-test was used for statistical processing. […] The results of IL-10 concentration are shown as the average of the values measured in six tests. […]
The IL-10 inducing activity of the test samples was evaluated according to the procedure described in [Reference Example 1] above. […]
The IL-10 induction rate was calculated according to the following formula. […]

FSL-1
IL-10 Concentration (pg/mL) Average: 180.8 pg/mL
